Experiments:
Assay type in all cases: cell-based
[1] = biological target: T1, wild-type human cardiac sodium channel, hNav1.5 (Homo sapiens, UniProt Q14524); test: Late INa screening assay (QPatch whole cell patch clamp, HEK293)
Outline: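 HEK293 stably expressing hNav1.5 without beta subunits, recorded at 23-25° C. Late current was induced by 10 μM tefluthrin. Cells were depolarized from −120 mV to −20 mV for 250 ms at 0.1 Hz. Compounds were tested at 1 μM in extracellular solution, with baseline taken in 0Na-ECF; output is percent block of late INa.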

[2] = biological target: T2, hNav 1.1 sodium channel isoform (Homo sapiens, UniProt P35498); test: hNav1.1 whole-cell voltage-clamp assay; conditions: % Inhibition at 1 uM; use-dependent block, 10 Hz; read-out: NAV1.1* UDB-10HZ
T2 construct: expressed in transfected cells; host or cells: HEK293, transient transfection (Qiagen Superfect)

[3] = biological target: T3, hNav 1.2 sodium channel isoform (Homo sapiens, UniProt Q99250); test: hNav1.2 whole-cell voltage-clamp assay; conditions: use-dependent block, 10 Hz, read-out: NAV1.2* UDB-10HZ
T3 construct: expressed in transfected cells
T3 sequence (Q99250 whole entry, canonical isoform): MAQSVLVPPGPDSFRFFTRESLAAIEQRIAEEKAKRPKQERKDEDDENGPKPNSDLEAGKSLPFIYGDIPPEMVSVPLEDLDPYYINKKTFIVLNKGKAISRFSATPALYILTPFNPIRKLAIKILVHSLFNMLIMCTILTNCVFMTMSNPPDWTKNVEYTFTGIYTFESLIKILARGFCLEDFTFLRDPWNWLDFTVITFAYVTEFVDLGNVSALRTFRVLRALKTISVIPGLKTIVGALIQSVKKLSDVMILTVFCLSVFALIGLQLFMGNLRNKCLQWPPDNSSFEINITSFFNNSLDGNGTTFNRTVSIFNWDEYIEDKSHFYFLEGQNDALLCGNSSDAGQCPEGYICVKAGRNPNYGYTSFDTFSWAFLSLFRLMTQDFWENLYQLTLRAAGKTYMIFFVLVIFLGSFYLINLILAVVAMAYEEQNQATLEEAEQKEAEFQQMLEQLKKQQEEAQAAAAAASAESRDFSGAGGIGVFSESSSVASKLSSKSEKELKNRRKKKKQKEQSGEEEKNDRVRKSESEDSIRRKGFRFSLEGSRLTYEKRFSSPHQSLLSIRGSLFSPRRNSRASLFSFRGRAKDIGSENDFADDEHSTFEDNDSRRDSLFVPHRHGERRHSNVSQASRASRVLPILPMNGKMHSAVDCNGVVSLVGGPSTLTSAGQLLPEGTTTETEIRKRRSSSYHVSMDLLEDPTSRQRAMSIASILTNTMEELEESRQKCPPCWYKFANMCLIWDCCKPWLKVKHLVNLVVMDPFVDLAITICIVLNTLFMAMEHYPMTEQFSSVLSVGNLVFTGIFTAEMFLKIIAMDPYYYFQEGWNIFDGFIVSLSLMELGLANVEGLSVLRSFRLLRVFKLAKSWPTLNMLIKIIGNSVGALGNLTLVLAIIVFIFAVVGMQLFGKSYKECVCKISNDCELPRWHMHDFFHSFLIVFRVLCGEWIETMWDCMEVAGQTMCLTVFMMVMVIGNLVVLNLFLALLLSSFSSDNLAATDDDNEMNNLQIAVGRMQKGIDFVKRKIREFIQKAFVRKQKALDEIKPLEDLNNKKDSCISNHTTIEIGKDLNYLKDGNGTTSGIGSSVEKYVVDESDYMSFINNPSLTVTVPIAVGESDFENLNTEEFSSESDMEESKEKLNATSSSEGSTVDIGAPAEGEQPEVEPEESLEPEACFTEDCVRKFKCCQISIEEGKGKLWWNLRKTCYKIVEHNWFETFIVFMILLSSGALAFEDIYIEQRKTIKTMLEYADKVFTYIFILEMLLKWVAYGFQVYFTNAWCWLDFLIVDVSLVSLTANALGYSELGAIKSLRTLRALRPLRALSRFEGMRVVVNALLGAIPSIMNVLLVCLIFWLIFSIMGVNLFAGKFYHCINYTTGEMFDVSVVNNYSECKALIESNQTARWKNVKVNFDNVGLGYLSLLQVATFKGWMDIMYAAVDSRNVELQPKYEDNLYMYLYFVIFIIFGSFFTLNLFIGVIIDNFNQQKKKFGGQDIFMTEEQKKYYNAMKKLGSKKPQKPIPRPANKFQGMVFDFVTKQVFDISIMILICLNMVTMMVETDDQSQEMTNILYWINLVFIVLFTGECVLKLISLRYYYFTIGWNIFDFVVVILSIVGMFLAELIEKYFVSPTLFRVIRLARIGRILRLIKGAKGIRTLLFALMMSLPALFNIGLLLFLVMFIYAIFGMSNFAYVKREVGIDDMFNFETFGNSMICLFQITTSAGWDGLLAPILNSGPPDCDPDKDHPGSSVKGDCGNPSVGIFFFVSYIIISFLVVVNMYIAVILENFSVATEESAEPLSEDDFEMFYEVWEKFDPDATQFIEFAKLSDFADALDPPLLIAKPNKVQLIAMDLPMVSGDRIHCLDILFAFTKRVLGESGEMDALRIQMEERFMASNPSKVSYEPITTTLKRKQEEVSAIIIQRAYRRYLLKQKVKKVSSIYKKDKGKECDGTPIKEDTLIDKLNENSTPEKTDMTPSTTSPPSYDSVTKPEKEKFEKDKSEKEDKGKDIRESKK
Procedure: Wild-type (WT) cDNA stably transfected in Chinese hamster ovary (CHO) cells is used to record INa. Unless otherwise noted, all reagents are purchased from Sigma-Aldrich (St Louis, Mo., U.S.A.).
Whole-cell voltage-clamp recordings are used to measure the biophysical properties of WT. […] Cells are allowed to stabilize for 10 min after establishment of the whole-cell configuration before current is measured. Series resistance is compensated 90% to assure that the command potential is reached within microseconds with a voltage error<2 mV. Leak currents are subtracted by using an online P/4 procedure and all currents are low-pass Bessel filtered at 5 kHz and digitized at 50 kHz.
For clarity, representative ramp currents are low pass filtered off-line at 50 Hz. Specific voltage-clamp protocols assessing channel activation, fast inactivation and availability during repetitive stimulation are used. Results are presented as mean±SEM.
Tonic block of peak current is measured using a step to −10 mV (20 ms) from a holding potential of −120 mV (0.2 Hz). Use-dependent block of peak current is measured during pulse number 300 of a pulse train (−10 mV, 5 ms, 300 pulses, 10 Hz or 25 Hz) from a holding potential of −120 mV. Two sequential pulse train stimulations are averaged to obtain mean current traces for each recording condition, which are then used for offline subtraction and analysis.
For use-dependent studies, cells are stimulated with depolarizing pulse trains (−10 mV, 5 ms, 300 pulses, 10 and 25 Hz) from a holding potential of −120 mV. Currents are then normalized to the peak current recorded in response to the first pulse in each frequency train. For tonic block studies, peak current is evaluated in response to a 20 ms depolarization to −10 mV (0.2 Hz). […] Results are presented as mean±SEM.
A stock solution of 10 mM compound of Formula I is prepared in 0.1 M HCl or DMSO. […] The final DMSO concentration was kept at 0.1% in all solutions. Direct application of the perfusion solution to the clamped cell is achieved using the Perfusion Pencil system (Automate, Berkeley, Calif.). Direct cell perfusion is driven by gravity at a flow rate of 350 μL/min using a 250 micron tip. This system sequesters the clamped cell within a perfusion stream and enables complete solution exchange within 1 second. The clamped cell is perfused continuously starting immediately after establishing the whole-cell configuration. Control currents are measured during control solution perfusion.
Solutions are perfused for three minutes prior to current recordings to allow equilibrium (tonic) drug block. Tonic block of peak currents is measured from this steady-state condition. Three sequential current traces are averaged to obtain a mean current for each recording. The mean current traces are utilized for offline analysis. Use-dependent block of peak current is measured during pulse number 300 of the pulse train, (−10 mV, 5 ms, 300 pulses, 10 Hz) from a holding potential of −120 mV.

[4] = biological target: T1, wild-type human cardiac sodium channel, hNav1.5; test: Peak INa screening assay (tonic and use-dependent block); conditions: compound at 1 μM
Procedure: The late sodium current (Late INa) and peak sodium current (Peak INa) assays are performed on an automated electrophysiology platform, QPatch 16× (Sophion Bioscience, Copenhagen, Denmark), which uses the whole cell patch clamp technique to measure currents through the cell membrane of up to 16 cells at a time. The assay uses an HEK293 (human embryonic kidney) cell line heterologously expressing the wild-type human cardiac sodium channel, hNav1.5, purchased from Millipore (Billerica, Mass.). No beta subunits were coexpressed with the Na channel alpha subunit. Cells are maintained with standard tissue culture procedures and stable channel expression is maintained with 400 μg/mL Geneticin in the culture medium. Cells isolated for use on QPatch are incubated for 5 minutes in Detachin 1×(Genlantis, San Diego, USA) at 37° C. to ensure that 80-90% of the cells are single and not part of a cell cluster. Experiments are carried out at 23-25° C.
For both the Late INa and Peak INa assays, series resistance compensation is set to 100% and series resistance and whole-cell compensation are performed automatically. Currents are digitized at 25 kHz and low-pass filtered at 12 kHz and 10 kHz for the late and peak INa assays, respectively. Currents through open sodium channels are automatically recorded and stored in the Sophion Bioscience Oracle database (Sophion Bioscience, Copenhagen, Denmark). Analysis is performed using QPatch Assay and database software and data are compiled in Excel.
Compound stocks are routinely made by the Gilead Sample Bank in plastic vials to 10 mM in dimethyl sulfoxide (DMSO). In some cases, when compounds are not soluble in DMSO, they are made in 100% ethanol. Stocks are sonicated as necessary. The extracellular solution for screening Late INa is composed of: 140 mM NaCl, 4 mM KCl, 1.8 mM CaCl2, 0.75 mM MgCl2 and 5 mM HEPES with pH adjusted to 7.4 using NaOH. The intracellular solution used to perfuse the inside of the cells for both the Late INa and Peak INa assays contains: 120 mM CsF, 20 mM CsCl, 5 mM EGTA, 5 mM HEPES and pH adjusted to 7.4 with CsOH. Compounds are diluted in extracellular solution to 1 μM in glass vials and then transferred to glass well plates before robotic addition to the cells. The 0 mM Na extracellular solution (0Na-ECF) used at the end of each experiment for the Late INa and Peak INa assays to measure baseline current contains: 140 mM N-methyl-D-glucamine; 4 mM KCl; 1.8 mM CaCl2; 0.75 mM MgCl2; 5 mM HEPES and pH was adjusted to 7.4 with HCl.
Compounds were also evaluated for their effect in several other assays, including their effect on Peak INa. […] Since the peak INa in the cells used herein can be very large, introducing artifacts in the recording, the concentration of Na^+ in the bath can be reduced to 20 mM and a nonpermeant cation added to compensate for the Na^+ that was removed to maintain the osmolarity and ionic strength of the solution (see solution details below).
A low stimulation frequency of 0.1 Hz was used to determine the effect of the test compound when the channel spent most of the time in the resting (closed) state and provides information about Tonic Block (TB). A higher stimulation frequency (3 Hz) was used to measure block of the channel when it spent more time in the activated and inactivated states and provided a measure of Use-Dependent Block (UDB). Use-dependent block refers to the accumulation of block with increased frequency of channel activation.

[5] = HEK293, % Inhibition at 1 uM, read-out: Late INa*
[6] = HEK293, percent block of late INa, compound at 1 μM, 10 μM Tefluthrin, read-out: Late INa 1 μM
[7] = tonic block of peak INa, 0.1 Hz, read-out: Peak TB 1 μM
[8] = use-dependent block of peak INa, 3 Hz, read-out: Peak UDB 1 μM

T1 sequence (Q14524 whole entry): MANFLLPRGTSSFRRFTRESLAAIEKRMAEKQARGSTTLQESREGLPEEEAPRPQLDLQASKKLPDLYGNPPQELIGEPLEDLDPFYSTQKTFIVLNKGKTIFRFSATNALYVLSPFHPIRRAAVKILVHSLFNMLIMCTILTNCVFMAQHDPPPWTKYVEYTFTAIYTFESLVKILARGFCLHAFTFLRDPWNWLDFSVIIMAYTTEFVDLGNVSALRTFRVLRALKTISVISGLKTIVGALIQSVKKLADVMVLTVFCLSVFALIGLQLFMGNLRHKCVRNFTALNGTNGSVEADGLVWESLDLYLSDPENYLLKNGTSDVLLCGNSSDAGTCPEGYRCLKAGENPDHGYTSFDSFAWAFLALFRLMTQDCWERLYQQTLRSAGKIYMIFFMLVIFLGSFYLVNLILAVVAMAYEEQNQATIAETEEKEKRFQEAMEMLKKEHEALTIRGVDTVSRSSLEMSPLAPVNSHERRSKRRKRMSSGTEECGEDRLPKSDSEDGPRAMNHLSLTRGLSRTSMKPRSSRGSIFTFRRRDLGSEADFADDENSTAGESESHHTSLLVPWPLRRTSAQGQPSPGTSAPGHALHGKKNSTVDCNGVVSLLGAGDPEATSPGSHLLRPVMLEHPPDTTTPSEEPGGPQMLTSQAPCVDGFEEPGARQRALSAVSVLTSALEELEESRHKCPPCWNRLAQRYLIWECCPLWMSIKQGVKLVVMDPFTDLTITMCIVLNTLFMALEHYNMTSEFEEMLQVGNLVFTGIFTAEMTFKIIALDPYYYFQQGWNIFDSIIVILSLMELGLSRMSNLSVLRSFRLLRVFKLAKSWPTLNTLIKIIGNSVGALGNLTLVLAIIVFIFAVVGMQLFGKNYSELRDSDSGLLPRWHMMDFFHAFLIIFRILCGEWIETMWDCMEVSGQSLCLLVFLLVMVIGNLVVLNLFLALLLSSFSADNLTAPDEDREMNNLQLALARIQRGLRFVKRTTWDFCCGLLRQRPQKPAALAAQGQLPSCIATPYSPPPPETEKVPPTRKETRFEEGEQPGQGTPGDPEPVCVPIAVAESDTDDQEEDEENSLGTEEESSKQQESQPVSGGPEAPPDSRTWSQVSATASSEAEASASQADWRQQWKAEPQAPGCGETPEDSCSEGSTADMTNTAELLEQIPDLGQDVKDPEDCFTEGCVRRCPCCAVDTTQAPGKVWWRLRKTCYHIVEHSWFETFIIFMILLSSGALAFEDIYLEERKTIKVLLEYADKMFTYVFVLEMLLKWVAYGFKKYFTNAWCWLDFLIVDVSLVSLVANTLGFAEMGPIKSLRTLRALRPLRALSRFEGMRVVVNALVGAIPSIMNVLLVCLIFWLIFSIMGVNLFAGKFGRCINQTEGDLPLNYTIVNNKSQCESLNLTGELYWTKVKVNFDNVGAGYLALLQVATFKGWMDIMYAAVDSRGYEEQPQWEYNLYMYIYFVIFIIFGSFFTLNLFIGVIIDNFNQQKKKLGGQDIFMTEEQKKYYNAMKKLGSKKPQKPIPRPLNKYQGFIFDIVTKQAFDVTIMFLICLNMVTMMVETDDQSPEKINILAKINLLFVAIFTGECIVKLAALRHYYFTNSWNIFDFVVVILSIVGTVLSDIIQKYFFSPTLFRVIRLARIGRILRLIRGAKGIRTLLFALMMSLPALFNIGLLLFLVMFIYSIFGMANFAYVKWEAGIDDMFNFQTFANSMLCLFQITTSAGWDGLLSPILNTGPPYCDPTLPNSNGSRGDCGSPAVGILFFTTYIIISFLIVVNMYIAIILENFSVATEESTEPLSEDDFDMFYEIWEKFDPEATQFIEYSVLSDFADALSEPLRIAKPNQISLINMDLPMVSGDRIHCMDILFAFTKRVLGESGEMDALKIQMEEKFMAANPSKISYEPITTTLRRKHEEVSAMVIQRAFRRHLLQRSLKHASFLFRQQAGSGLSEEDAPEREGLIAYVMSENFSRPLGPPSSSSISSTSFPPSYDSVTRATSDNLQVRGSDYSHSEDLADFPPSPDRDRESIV

Structure (SMILES) | inhibition at 1 µM [1, 5] [%] | inhibition at 1 µM [1, 6] [%] | inhibition at 1 µM [2] [%] | inhibition at 1 µM [3] [%] | inhibition at 1 µM [4, 7] [%] | inhibition at 1 µM [4, 8] [%]
COc1cc(OC)nc(CN2CCOc3ccc(-c4ccc(OC(F)(F)F)cc4)cc3C2=O)n1 [II-42, 4-((4,6-dimethoxypyrimidin-2-yl)methyl)-7-(4-(trifluoromethoxy)phenyl)-3,4-dihydrobenzo[f][1,4]oxazepin-5(2H)-one] | 34 | 34 | 2 | 12 |  | 
Cc1ccnc(CN2CCOc3cnc(-c4ccc(OC(F)(F)F)cc4)cc3C2=O)n1 [XII-8, 4-((4-methylpyrimidin-2-yl)methyl)-7-(4-(trifluoromethoxy)phenyl)-3,4-dihydropyrido[4,3-f][1,4]oxazepin-5(2H)-one] | 36 | 36 | 11 | 11 |  | 
CN1CCOc2ccc(-c3ccc(OC(F)(F)F)cc3)cc2C1=O [II-46, 4-methyl-7-(4-(trifluoromethoxy)phenyl)-3,4-dihydrobenzo[f][1,4]oxazepin-5(2H)-one] | 25 | 25 | 2 | 16 |  | 
COc1cccnc1CN1CCOc2ccc(-c3ccc(OC(F)(F)F)cc3)cc2C1=O [II-143, 4-((3-methoxypyridin-2-yl)methyl)-7-(4-(trifluoromethoxy)phenyl)-3,4-dihydrobenzo[f][1,4]oxazepin-5(2H)-one] | 65 | 65 | 29 | 44 |  | 
O=C1c2nc(-c3ccc(OC(F)(F)F)cc3)ccc2OCCN1Cc1ccccc1 [XII-2, 4-benzyl-7-(4-(trifluoromethoxy)phenyl)-3,4-dihydropyrido[2,3-f][1,4]oxazepin-5(2H)-one] |  | 57 |  |  | 45 | 64
O=C1c2cc(-c3ccc(OC(F)(F)F)cc3)ncc2OCCN1Cc1ncccc1F [XII-11, 4-((3-fluoropyridin-2-yl)methyl)-7-(4-(trifluoromethoxy)phenyl)-3,4-dihydropyrido[4,3-f][1,4]oxazepin-5(2H)-one] |  | 55 |  |  | 25 | 24
O=C1c2cc(-c3ccc(OC(F)(F)F)cc3)ccc2OCCN1Cc1cccc(C(F)(F)F)n1 [II-15, 7-(4-(trifluoromethoxy)phenyl)-4-((6-(trifluoromethyl)pyridin-2-yl)methyl)-3,4-dihydrobenzo[f][1,4]oxazepin-5(2H)-one] |  | 48 |  |  | 8 | 8
O=C1c2cc(-c3ccc(OC(F)(F)F)cc3)ccc2OCCN1CCc1ccccn1 [II-54, 4-(2-(pyridin-2-yl)ethyl)-7-(4-(trifluoromethoxy)phenyl)-3,4-dihydrobenzo[f][1,4]oxazepin-5(2H)-one] |  | 51 |  |  | 13 | 20
O=C(c1cc[nH]n1)N1CCOc2ccc(-c3ccc(OC(F)(F)F)cc3)cc2C1 [III-15, (1H-pyrazol-3-yl)(7-(4-(trifluoromethoxy)phenyl)-2,3-dihydrobenzo[f][1,4]oxazepin-4(5H)-yl)methanone] |  | 50 |  |  | 19 | 18
O=C1c2cc(-c3ccc(OC(F)(F)F)cc3)ccc2OCCN1Cc1cnccn1 [II-31, 4-(pyrazin-2-ylmethyl)-7-(4-(trifluoromethoxy)phenyl)-3,4-dihydrobenzo[f][1,4]oxazepin-5(2H)-one] |  | 51 |  |  | 9 | 8
O=C1c2cc(-c3ccc(OC(F)(F)F)cc3)ccc2OCCN1Cc1ccccc1F [II-57, 4-(2-fluorobenzyl)-7-(4-(trifluoromethoxy)phenyl)-3,4-dihydrobenzo[f][1,4]oxazepin-5(2H)-one] |  | 55 |  |  | 50 | 41
O=C1c2cc(-c3ccc(Cl)c(F)c3)ccc2OCCN1Cc1ccccn1 [II-158, 7-(4-chloro-3-fluorophenyl)-4-(pyridin-2-ylmethyl)-3,4-dihydrobenzo[f][1,4]oxazepin-5(2H)-one] |  | 58 |  |  | 34 | 26
O=C1c2cc(-c3ccc(OC(F)(F)F)cc3)ccc2OCCN1Cn1cc(Cl)cn1 [II-156, 4-((4-chloro-1H-pyrazol-1-yl)methyl)-7-(4-(trifluoromethoxy)phenyl)-3,4-dihydrobenzo[f][1,4]oxazepin-5(2H)-one] | 48 | 48 |  |  | 23 | 13
Cn1ccc(CN2CCOc3ccc(-c4ccc(OC(F)(F)F)cc4)cc3C2=O)n1 [II-64, 4-((1-methyl-1H-pyrazol-3-yl)methyl)-7-(4-(trifluoromethoxy)phenyl)-3,4-dihydrobenzo[f][1,4]oxazepin-5(2H)-one] |  | 55 |  |  | 12 | 19
Cc1cnc(CN2CCOc3ccc(-c4ccc(OC(F)(F)F)cc4)cc3C2=O)o1 [II-33, 4-((5-methyloxazol-2-yl)methyl)-7-(4-(trifluoromethoxy)phenyl)-3,4-dihydrobenzo[f][1,4]oxazepin-5(2H)-one] |  | 46 |  |  | 10 | 13

From patent US9676760B2, “Fused heterocyclic compounds as ion channel modulators” (Gilead Sciences, Inc., priority 2011, dated 2017)
